Test results published in patent publication US11078158B2, “(+)-3-(2,3-difluorophenyl)-3-methoxypyrrolidine or pharmaceutically acceptable salts thereof, a process for preparation thereof and uses thereof” (INTEGRATIVE RESEARCH LABORATORIES SWEDEN AB, priority 2017, dated 2021).

Experiments:
[1] = Flask method water solubility test; format: physicochemical; conditions: saturated solution equilibrated at least 24 hours, room temperature
Experimental: In some cases, a further water solubility test (Flask method water solubility test) was performed as follows. An excess of salt was added to water. The mixture was equilibrated (shaking) for at least 24 hours thereby providing a saturated salt solution. Then the saturated solution was clear-filtered and transferred into a clean pre-weighed flask (mv). The mass of flask+saturated solution (mvs) was recorded. The solvent was evaporated under reduced pressure until constant mass. Flask containing dried residue was weighed (mvdr). The solubility expressed as “grams of solute/kg of solvent”, i.e. “grams of salt/kg of solvent”, was calculated according to the equation: […]
(mvdr-mv) is the weight difference in kg between (i) the mass of the flask containing dried residue after evaporation of the solvent and (ii) the mass of the flask, and
(mvs-mvdr) is the weight difference in kg between (i) the mass of the flask including the saturated salt solution and (ii) the mass of the flask containing the dried residue.

human sigma 1 receptor = target: T1, human sigma 1 receptor (Homo sapiens, UniProt Q99720); experiment: In vitro competition binding assay, human sigma 1 receptor; conditions: 1.0 E-5 M test compound, 15 nM [3H] pentazocine, duplicate, mean value; read-out: Percent inhibition of the control radioligand specific binding
T1 construct: Cell membrane homogenates (150 μg protein) were incubated for 120 min at 37° C. with 15 nM; endogenous in cells; inferred to be Jurkat human T lymphocytes from the cited method (Ganapathy et al. 1999)
Experimental: The binding affinity of the fumaric acid salt of (+)-3-(2,3-difluorophenyl)-3-methoxypyrrolidine at the human sigma 1 receptor was determined by a competition binding assay similar to what is described in […], M. E., PRASAD, P. D., HUANG, W., SETH, P., LEIBACH, F. H. and […], V. (1999), Molecular and ligand-binding characterization of the σ-receptor in the Jurkat human T lymphocyte cell line, J. Pharmacol. Exp. Ther., 289: 251.
Cell membrane homogenates (150 μg protein) were incubated for 120 min at 37° C. with 15 nM [^3H] pentazocine in the absence or presence of the test compound in a buffer containing 50 mM Tris-HCl (pH 8).
Nonspecific binding was determined in the presence of 10 μM haloperidol.
Following incubation, the samples were filtered under vacuum through glass fiber filters (GF/B, Packard) presoaked with 0.3% PEI and rinsed several times with ice-cold 50 mM Tris-HCl using a 96-sample cell harvester (Unifilter, Packard). The filters were dried then counted for radioactivity in a scintillation counter (Topcount, Packard) using a scintillation cocktail (Microscint 0, Packard).
The results were expressed as a percent inhibition of the control radioligand specific binding.
The standard reference compound was haloperidol, which was tested in each experiment at several concentrations to obtain a competition curve from which its IC50 value was calculated. […]

[2] = Crystalline phase at tested relative humidity; format: physicochemical; conditions: any tested relative humidity
[3] = Regular water solubility test; format: physicochemical; conditions: thermodynamic from solid, room temperature
Experimental: Water solubility tests for the salts as described herein were performed as follows unless otherwise stated. 0.05 g of each salt was weighed in a flask and the mass of flask+salt (m-vs) was recorded. Water was slowly added dropwise into the flask with salt until full dissolution was achieved as observed by the naked eye. The mass of flask+salt+solvent (m-sys) was recorded.
(s) stands for the weight of the salt measured in kg,
(m-sys) stands for the mass of the flask+salt+solvent measured in kg, and
(m-vs) stands for the mass of the flask+salt measured in kg.

Hygroscopicity test = format: physicochemical; conditions: 30° C., one week; for hygroscopicity (in words): any tested relative humidity
Experimental: Hygroscopicity tests of the salts were performed by keeping exact weight samples of the different salts at varied humidity at 30° C. After one week, the samples were weighed again and based on the original weight the percentage weight difference was calculated.
In the followed hygroscopicity test, the change in weight was measured after each acidic salt of (+)-3-(2,3-difluorophenyl)-3-methoxypyrrolidine was exposed for a week under the condition of 30° C. and different relative humidities (RH) 0 to 97%.

T1 sequence (Q99720 whole entry): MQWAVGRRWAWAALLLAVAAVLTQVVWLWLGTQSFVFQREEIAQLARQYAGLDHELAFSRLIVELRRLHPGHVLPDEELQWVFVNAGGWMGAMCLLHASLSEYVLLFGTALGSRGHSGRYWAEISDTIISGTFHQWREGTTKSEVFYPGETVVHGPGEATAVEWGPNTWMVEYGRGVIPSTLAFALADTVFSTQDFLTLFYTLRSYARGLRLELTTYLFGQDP

| solubility ([1]; water, thermodynamic from solid) | inhibition at 10 µM (human sigma 1 receptor) | solubility [3] | hygroscopicity (in words) (Hygroscopicity test; listed as salt of Formula IIb) | SMILES | change of crystalline phase with humidity (in words) [2] | hygroscopicity (in words) (Hygroscopicity test; listed as Example 11) | Weight difference (%) (Hygroscopicity test; relative humidity 0%) | Weight difference (%) (Hygroscopicity test; relative humidity 6%) | Weight difference (%) (Hygroscopicity test; relative humidity 11%) | Weight difference (%) (Hygroscopicity test; relative humidity 22%) | Weight difference (%) (Hygroscopicity test; relative humidity 32%) | Weight difference (%) (Hygroscopicity test; relative humidity 43%) | Weight difference (%) (Hygroscopicity test; relative humidity 56%) | Weight difference (%) (Hygroscopicity test; relative humidity 73%) | Weight difference (%) (Hygroscopicity test; relative humidity 84%) | Weight difference (%) (Hygroscopicity test; relative humidity 97%) | Solubility in water (Flask method water solubility test) [1] |
| --- | --- | --- | --- | --- | --- | --- | --- | --- | --- | --- | --- | --- | --- | --- | --- | --- | --- |
| 74.1 mg/mL | 79.1% | 34 mg/mL | not being hygroscopic | CO[C@]1(c2cccc(F)c2F)CCNC1.O=C(O)/C=C/C(=O)O [Example 7, fumarate Salt of (+)-3-(2,3-difluorophenyl)-3-methoxypyrrolidine] | not changing in its crystalline phase at any tested relative humidity | does not adsorb or desorb water at any humidity | −0.07% | −0.14% | 0.11% | 0.15% | 0.13% | 0.07% | 0.19% | 0.06% | 0.00% | 0.16% | – |
| – | – | – | – | COC1(c2cccc(F)c2F)CCNC1.O=C(O)C[C@H](O)C(=O)O [Example 13, L-Malic Acid Salt of (+)-3-(2,3-difluorophenyl)-3-methoxypyrrolidine] | – | – | −0.07% | 0.00% | −0.13% | −0.08% | 0.00% | −0.22% | −0.06% | 0.07% | 0.40% | 34.37% | – |
| – | – | – | – | COC1(c2cccc(F)c2F)CCNC1.O=C(O)C(=O)O (stereo not drawn) [Reference Example 19, oxalic Acid Salt of (+)-3-(2,3-difluorophenyl)-3-methoxypyrrolidine, reference compound] | – | – | 0.00% | 0.00% | −0.21% | 0.00% | 0.11% | −0.05% | 0.00% | −0.05% | −0.15% | 0.26% | 28 mg/mL |
| – | – | – | – | COC1(c2cccc(F)c2F)CCNC1.O=C(O)C(O)C(O)C(=O)O [Example 9, L-Tartaric acid salt of (+)-3-(2,3-difluorophenyl)-3-methoxypyrrolidine] | – | – | −2.36% | −0.67% | −0.14% | 2.40% | 2.16% | 1.71% | 1.99% | 1.90% | 2.13% | 2.39% | – |
| – | – | – | – | COC1(c2cccc(F)c2F)CCNC1.Cl (stereo not drawn) [Example 8, Hydrochloric Acid Salt of (+)-3-(2,3-difluorophenyl)-3-methoxypyrrolidine] | – | – | 0.00% | −0.07% | −0.06% | −0.15% | 0.00% | −0.13% | −0.14% | −0.13% | 25.77% | 99.12% | – |
